Experimental data: ChEMBL document CHEMBL1201862, “PubChem BioAssay data set” (2004)
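Growth conditions: 96-well plates. Treatment: test compound, 48 hours, 5 concentrations. Analysis: linear interpolation between bracketing concentrations; unreached endpoints set to highest concentration. GI50: concentration for 50% inhibition of growth.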 Active and inactive are the calls of the source. Rule as the data show it: active = GI50 up to about 1.1 µM and inactive = higher.

Key:
Assay in all cases: inhibition of tumour cell growth, NCI panel, 48 h
[1] = system: EKVX
[2] = system: MOLT-4
[3] = system: NCI-H522
[4] = system: TK-10
[5] = system: MCF7
[6] = system: HOP-62
[7] = system: M14
[8] = system: NCI-H226
[9] = system: NCI-H23
[10] = system: COLO 205
[11] = system: IGROV-1
[12] = system: SF-539
[13] = system: Hs-578T
[14] = system: SK-OV-3
[15] = system: SK-MEL-2
[16] = system: SF-268
[17] = system: Malme-3M
[18] = system: RPMI-8226
[19] = system: OVCAR-3
[20] = system: NCI-H460
[21] = system: SW-620
[22] = system: A549
[23] = system: CCRF-CEM
[24] = system: ACHN
[25] = system: HCT-116
[26] = system: HCT-15
[27] = system: SK-MEL-28
[28] = system: LOX IMVI
[29] = system: BT-549
[30] = system: OVCAR-5
[31] = system: SNB-75
[32] = system: UO-31
[33] = system: OVCAR-8
[34] = system: K562
[35] = system: SF-295
[36] = system: HL-60
[37] = system: SK-MEL-5
[38] = system: UACC-62
[39] = system: 786-0
[40] = system: HT-29
[41] = system: RXF 393
[42] = system: OVCAR-4
[43] = system: MDA-MB-435
[44] = system: U-251
[45] = system: PC-3
[46] = system: MDA-N
[47] = system: UACC-257
[48] = system: NCI/ADR-RES
[49] = system: SN12C
[50] = system: KM12
[51] = system: MDA-MB-231
[52] = system: A498
[53] = system: HCC 2998
[54] = system: DU-145
[55] = system: T47D
[56] = system: CAKI-1

For `NC(Cc1ccc(S(=O)(=O)O)cc1)C(=O)NC(CCCCNC(=O)NCCCCC(NC(=O)C(N)Cc1ccc(S(=O)(=O)O)cc1)C(=O)NC(Cc1ccc(S(=O)(=O)O)cc1)C(=O)O)C(=O)NC(Cc1ccc(S(=O)(=O)O)cc1)C(=O)O` (stereo unspecified), the GI50 [1] was > 100 µM (inactive), the GI50 [2] was > 100 µM (inactive) and the GI50 [3] was > 100 µM (inactive). The GI50 [4] was > 100 µM (inactive), the GI50 [5] was 69.5 µM (inactive) and the GI50 [6] was > 100 µM (inactive). The GI50 [7] was > 100 µM (inactive), the GI50 [8] was > 100 µM (inactive) and the GI50 [9] was > 100 µM (inactive). The GI50 [10] was > 100 µM (inactive), the GI50 [11] was > 100 µM (inactive) and the GI50 [12] was > 100 µM (inactive). For the same compound, the GI50 [13] was > 100 µM (inactive), the GI50 [14] was > 100 µM (inactive) and the GI50 [15] was > 100 µM (inactive). The GI50 [16] was > 100 µM (inactive), the GI50 [17] was > 100 µM (inactive) and the GI50 [18] was > 100 µM (inactive). The GI50 [19] was > 100 µM (inactive), the GI50 [20] was > 100 µM (inactive) and the GI50 [21] was > 100 µM (inactive). The GI50 [22] was > 100 µM (inactive), the GI50 [23] was > 100 µM (inactive) and the GI50 [24] was > 100 µM (inactive). The GI50 [25] was > 100 µM (inactive), the GI50 [26] was > 100 µM and the GI50 [27] was > 100 µM (inactive). The GI50 [28] was > 100 µM (inactive), the GI50 [29] was > 100 µM (inactive) and the GI50 [30] was > 100 µM (inactive). For the same compound, the GI50 [31] was > 100 µM (inactive), the GI50 [32] was > 100 µM (inactive) and the GI50 [33] was > 100 µM (inactive). The GI50 [34] was > 100 µM (inactive), the GI50 [35] was > 100 µM (inactive) and the GI50 [36] was > 100 µM (inactive). For the same compound, the GI50 [37] was > 100 µM (inactive), the GI50 [38] was > 100 µM (inactive) and the GI50 [39] was > 100 µM (inactive). The GI50 [40] was > 100 µM (inactive), the GI50 [41] was > 100 µM (inactive) and the GI50 [42] was > 100 µM (inactive). The GI50 [43] was > 100 µM (inactive), the GI50 [44] was > 100 µM (inactive) and the GI50 [45] was > 100 µM (inactive). The GI50 [46] was > 100 µM (inactive), the GI50 [47] was > 100 µM (inactive) and the GI50 [48] was > 100 µM (inactive). For the same compound, the GI50 [49] was > 100 µM (inactive), the GI50 [50] was > 100 µM (inactive) and the GI50 [51] was > 100 µM (inactive). For the same compound, the GI50 [52] was > 100 µM (inactive), the GI50 [53] was > 100 µM (inactive) and the GI50 [54] was > 100 µM (inactive). For the same compound, the GI50 [55] was > 100 µM (inactive) and the GI50 [56] was > 100 µM (inactive).
